Source: ChEMBL document CHEMBL1135365, “Mixed lineage kinase activity of indolocarbazole analogues” (Bioorg Med Chem Lett, 2002)

Experiments:
[1] = target: Mitogen-activated protein kinase kinase kinase 10 (Homo sapiens, UniProt Q02779); assay: Inhibition of Mixed lineage kinase 2(MLK2)
[2] = target: Mitogen-activated protein kinase kinase kinase 11 (Homo sapiens, UniProt Q16584); assay: Inhibition of Mixed lineage kinase 3 (MLK3)
Protein kinase C (PKC) = assay: Inhibition of protein kinase C (PKC) from rat brain homogenate
[3] = target: High affinity nerve growth factor receptor (Homo sapiens, UniProt P04629); assay: Inhibition of NGF high affinity receptor tyrosine kinase TrkA
Chain of High affinity nerve growth factor receptor (P04629 whole entry): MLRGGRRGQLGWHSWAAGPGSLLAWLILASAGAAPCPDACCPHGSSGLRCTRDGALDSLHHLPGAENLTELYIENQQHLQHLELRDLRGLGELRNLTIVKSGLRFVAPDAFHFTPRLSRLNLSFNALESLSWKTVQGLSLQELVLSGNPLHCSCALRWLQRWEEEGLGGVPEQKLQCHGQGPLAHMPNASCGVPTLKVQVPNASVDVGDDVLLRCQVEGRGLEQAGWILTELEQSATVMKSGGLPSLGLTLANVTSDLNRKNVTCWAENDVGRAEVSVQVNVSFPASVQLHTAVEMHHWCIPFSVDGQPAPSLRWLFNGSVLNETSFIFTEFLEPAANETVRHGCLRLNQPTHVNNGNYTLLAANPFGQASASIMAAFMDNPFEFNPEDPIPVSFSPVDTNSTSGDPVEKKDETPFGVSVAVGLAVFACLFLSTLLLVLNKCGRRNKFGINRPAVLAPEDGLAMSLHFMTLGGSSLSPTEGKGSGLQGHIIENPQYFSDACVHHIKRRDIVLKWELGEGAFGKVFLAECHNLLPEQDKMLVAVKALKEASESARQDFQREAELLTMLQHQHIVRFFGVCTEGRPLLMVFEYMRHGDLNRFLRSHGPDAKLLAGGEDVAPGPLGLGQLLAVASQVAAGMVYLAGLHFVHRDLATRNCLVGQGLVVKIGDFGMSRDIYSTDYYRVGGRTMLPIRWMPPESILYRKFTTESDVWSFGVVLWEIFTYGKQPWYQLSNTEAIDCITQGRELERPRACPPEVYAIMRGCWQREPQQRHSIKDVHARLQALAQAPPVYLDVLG

[4] = target: Mitogen-activated protein kinase kinase kinase 9 (Homo sapiens, UniProt P80192); assay: Inhibition of Mixed lineage kinase 1 (MLK1)
Chain of Mitogen-activated protein kinase kinase kinase 9 (P80192 whole entry): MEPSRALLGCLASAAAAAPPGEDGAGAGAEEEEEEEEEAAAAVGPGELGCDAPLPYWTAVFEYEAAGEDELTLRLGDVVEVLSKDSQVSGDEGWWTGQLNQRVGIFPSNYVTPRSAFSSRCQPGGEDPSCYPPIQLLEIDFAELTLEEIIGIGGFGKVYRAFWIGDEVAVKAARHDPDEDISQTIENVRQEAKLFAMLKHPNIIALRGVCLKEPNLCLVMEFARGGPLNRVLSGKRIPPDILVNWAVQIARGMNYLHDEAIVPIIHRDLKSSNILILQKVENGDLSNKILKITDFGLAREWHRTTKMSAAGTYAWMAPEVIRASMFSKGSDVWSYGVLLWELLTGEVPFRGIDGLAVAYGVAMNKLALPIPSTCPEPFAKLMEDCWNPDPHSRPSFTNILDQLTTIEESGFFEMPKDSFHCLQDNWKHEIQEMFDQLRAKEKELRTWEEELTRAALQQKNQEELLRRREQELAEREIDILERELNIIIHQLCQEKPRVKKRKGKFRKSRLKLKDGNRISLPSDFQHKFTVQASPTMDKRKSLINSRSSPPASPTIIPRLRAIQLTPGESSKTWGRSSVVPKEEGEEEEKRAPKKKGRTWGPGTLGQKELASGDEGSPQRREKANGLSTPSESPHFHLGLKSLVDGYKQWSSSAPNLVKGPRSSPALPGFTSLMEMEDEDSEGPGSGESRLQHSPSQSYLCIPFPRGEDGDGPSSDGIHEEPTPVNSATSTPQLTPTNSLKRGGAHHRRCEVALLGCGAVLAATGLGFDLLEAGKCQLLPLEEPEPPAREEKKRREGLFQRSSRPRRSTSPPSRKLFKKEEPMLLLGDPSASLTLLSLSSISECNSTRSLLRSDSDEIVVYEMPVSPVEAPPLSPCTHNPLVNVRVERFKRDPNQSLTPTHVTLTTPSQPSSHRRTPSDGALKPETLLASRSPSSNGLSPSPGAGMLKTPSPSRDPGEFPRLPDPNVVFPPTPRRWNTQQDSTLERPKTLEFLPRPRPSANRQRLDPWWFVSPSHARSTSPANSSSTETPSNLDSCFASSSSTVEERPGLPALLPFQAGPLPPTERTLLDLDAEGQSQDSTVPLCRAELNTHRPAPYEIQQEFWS

Chain of Mitogen-activated protein kinase kinase kinase 10 (Q02779 whole entry): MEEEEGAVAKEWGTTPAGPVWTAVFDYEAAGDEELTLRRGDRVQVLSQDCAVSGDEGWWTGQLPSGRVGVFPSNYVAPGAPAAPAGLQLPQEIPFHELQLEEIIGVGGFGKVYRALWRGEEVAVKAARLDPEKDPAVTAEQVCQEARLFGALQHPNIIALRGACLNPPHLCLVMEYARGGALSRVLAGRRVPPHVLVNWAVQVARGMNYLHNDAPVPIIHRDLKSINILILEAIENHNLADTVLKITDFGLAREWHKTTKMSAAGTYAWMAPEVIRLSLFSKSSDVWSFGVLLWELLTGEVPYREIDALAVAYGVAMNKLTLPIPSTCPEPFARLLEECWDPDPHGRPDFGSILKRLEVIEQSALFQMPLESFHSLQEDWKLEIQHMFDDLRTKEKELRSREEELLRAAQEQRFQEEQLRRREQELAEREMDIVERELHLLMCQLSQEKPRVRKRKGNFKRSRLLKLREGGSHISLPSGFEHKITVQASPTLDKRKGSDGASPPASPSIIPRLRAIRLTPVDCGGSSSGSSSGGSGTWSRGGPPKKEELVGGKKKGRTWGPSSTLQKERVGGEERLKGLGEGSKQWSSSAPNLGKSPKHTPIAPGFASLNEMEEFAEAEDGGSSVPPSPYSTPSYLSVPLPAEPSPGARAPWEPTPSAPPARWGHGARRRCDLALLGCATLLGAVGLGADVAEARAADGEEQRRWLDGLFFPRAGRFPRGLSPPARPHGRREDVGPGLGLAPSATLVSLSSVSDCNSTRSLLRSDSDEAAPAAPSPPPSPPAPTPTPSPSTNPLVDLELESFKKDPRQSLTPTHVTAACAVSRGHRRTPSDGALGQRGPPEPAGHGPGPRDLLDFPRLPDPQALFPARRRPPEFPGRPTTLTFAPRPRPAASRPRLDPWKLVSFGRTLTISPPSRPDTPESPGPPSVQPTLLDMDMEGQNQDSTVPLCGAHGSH
Chain of Mitogen-activated protein kinase kinase kinase 11 (Q16584 whole entry): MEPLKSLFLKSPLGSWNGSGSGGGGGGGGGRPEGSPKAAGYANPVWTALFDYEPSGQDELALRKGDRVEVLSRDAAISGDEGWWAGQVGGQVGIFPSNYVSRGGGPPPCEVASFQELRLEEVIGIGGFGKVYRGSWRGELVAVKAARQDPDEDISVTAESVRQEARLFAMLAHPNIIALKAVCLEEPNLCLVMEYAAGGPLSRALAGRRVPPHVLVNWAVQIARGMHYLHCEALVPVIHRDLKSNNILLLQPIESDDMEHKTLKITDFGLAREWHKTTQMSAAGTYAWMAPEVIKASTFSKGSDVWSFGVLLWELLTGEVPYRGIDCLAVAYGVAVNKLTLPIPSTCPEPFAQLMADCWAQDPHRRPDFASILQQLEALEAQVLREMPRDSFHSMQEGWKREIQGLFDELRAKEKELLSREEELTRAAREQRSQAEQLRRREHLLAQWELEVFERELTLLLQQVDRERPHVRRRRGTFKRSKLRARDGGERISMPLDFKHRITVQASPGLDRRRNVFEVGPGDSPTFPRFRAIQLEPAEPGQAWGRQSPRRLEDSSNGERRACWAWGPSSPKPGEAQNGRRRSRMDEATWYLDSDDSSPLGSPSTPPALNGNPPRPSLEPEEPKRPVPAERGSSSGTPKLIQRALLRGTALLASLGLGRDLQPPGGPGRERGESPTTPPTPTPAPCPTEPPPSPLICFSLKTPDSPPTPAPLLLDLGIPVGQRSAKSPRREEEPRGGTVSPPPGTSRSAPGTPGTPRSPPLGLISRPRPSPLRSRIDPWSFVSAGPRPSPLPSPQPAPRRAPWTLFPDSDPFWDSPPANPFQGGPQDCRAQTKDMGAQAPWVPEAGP

IC50 [1] [nM]	IC50 [2] [nM]	IC50 (Protein kinase C (PKC)) [nM]	IC50 [3] [nM]	IC50 [4] [nM]	SMILES
28	21	400	61	28	CCSCc1ccc2c(c1)c1c3c(c4c5ccccc5n5c4c1n2[C@@]1(C)O[C@@H]5C[C@]1(O)C(=O)OC)C(=O)NC3
89	31	980	> 10000	45	COC(=O)[C@@]1(O)C[C@H]2O[C@]1(C)n1c3ccc(CSC(C)C)cc3c3c4c(c5c6cc(CSC(C)C)ccc6n2c5c31)C(=O)NC4
–	94	> 10000	> 1000	162	C=CCSCc1ccc2c(c1)c1c3c(c4c5cc(CSCC=C)ccc5n5c4c1n2[C@H]1C[C@](O)(C(=O)OC)[C@]5(C)O1)CNC3=O
–	11	3	–	15	COC(=O)[C@@]1(O)C[C@H]2O[C@]1(C)n1c3ccc(CO)cc3c3c4c(c5c6cc(CO)ccc6n2c5c31)C(=O)NC4
627	143	> 7600	> 1000	303	CCCCSCc1ccc2c(c1)c1c3c(c4c5cc(CSCCCC)ccc5n5c4c1n2[C@H]1C[C@](O)(C(=O)OC)[C@]5(C)O1)CNC3=O
140	44	222	> 1000	43	CCSCc1ccc2c(c1)c1c3c(c4c5ccccc5n5c4c1n2[C@H]1C[C@](O)(C(=O)OC)[C@]5(C)O1)CNC3=O
–	56	> 10000	> 10000	90	CCCSCc1ccc2c(c1)c1c3c(c4c5cc(CSCCC)ccc5n5c4c1n2[C@H]1C[C@](O)(C(=O)OC)[C@]5(C)O1)CNC3=O
–	123	1600	> 1000	360	COC(=O)[C@@]1(O)C[C@H]2O[C@]1(C)n1c3ccc(CSCCN(C)C)cc3c3c4c(c5c6cc(CSCCN(C)C)ccc6n2c5c31)C(=O)NC4
51	23.1	> 10000	> 10000	38	CCSCc1ccc2c(c1)c1c3c(c4c5cc(CSCC)ccc5n5c4c1n2[C@H]1C[C@](O)(C(=O)OC)[C@]5(C)O1)CNC3=O [CEP-1347]

SMILES	IC50 [1] [nM]	IC50 [2] [nM]	IC50 (Protein kinase C (PKC)) [nM]	IC50 [3] [nM]	IC50 [4] [nM]
CCOCc1ccc2c(c1)c1c3c(c4c5cc(COCC)ccc5n5c4c1n2[C@H]1C[C@](O)(C(=O)OC)[C@]5(C)O1)CNC3=O	20	11	2600	210	19
COCc1ccc2c(c1)c1c3c(c4c5cc(COC)ccc5n5c4c1n2[C@H]1C[C@](O)(C(=O)OC)[C@]5(C)O1)CNC3=O	16	11	450	270	16
